Read-outs that look alike come from different tables or passages of the source.
Tests used:
[1] = test system: HDV; assay: HDV replication in HDV monoinfected dHepaRG cells (total HDV RNA, RT-qPCR); format: cell-based, Hepatitis D virus; conditions: day 4 to 11 post-infection
Procedure: FIG. 6. FXRα agonists inhibit HDV replication in monoinfected dHepaRG cells.
Total RNA was prepared using NucleoSpin RNA Plus (Macherey-Nagel). After DNA digestion with TURBO DNase (Ambion), maximum 1000 ng RNA were reverse-transcribed using High-Capacity RNA-to-cDNA kit (Thermo Fisher Scientific). […] . All assays were performed in triplicate.

[2] = test system: HDV genomic RNA; assay: HDV genomic RNA in HDV monoinfected dHepaRG cells (Northern Blot); conditions: day 4 to 11 post-infection
Procedure: Differentiated HepaRG cells were infected with HDV at a MOI of 25 GE/cell. From day 4 to day 11 post-infection, cells were treated with 1 or 10 μM of GW4064, 10 μM of 6-ECDCA and 1 μM of tropifexor. At day 11 post HDV infection, cells were collected and HDV genomic RNA was analyzed by Northern Blot.
To determine if FXRα-mediated inhibition of HDV was independent of HBV, the inventors analyzed the impact of FXRα agonists in HDV mono-infected dHepaRG cells.
Total RNA was extracted from infected cells using Tri Reagent® (TR118, Molecular Research Center). […] After electrotransfer to charged nylon membranes (Roche), genomic HDV RNA sequences were detected by using a strand-specific RNA probe synthesized using the Dig RNA Labeling kit (Sp6/T7) (Roche) and DIG luminescent detection kit (Roche) accordinng to the manufacturer's instruction. Quantification of signals were done with ImageLab.
As an internal control for the amount and quality of the extracted RNA, the membrane was stripped and rehybridized by using labeled oligonucleotides specific for human 18S rRNA and 28S rRNA.

[3] = test system: HDV; assay: HDV replication in HBV/HDV coinfected dHepaRG cells (intracellular HDV RNA, RT-qPCR); format: cell-based, Hepatitis D virus; conditions: 10 μM, treated day 3 to 13 post-infection
Procedure: The HepaRG cell line derived from a human cellular hepato carcinoma can differentiate and regain many phenotypic traits of hepatocytes after 4 weeks of culture under defined conditions^1. HepaRG cells were cultured, differentiated, and infected by HBV and HDV as previously described^2,3.
Total RNA was prepared using NucleoSpin RNA Plus (Macherey-Nagel). After DNA digestion with TURBO DNase (Ambion), maximum 1000 ng RNA were reverse-transcribed using High-Capacity RNA-to-cDNA kit (Thermo Fisher Scientific). […] All assays were performed in triplicate.

[4] = test system: HBV; assay: Anti-HBV activity in HBV/HDV coinfected dHepaRG cells (intracellular HBV RNAs, secreted HBs and HBe antigens); format: cell-based, Hepatitis B virus; conditions: 10 μM, day 13
Text: FIG. 1. FXRα agonist inhibits HDV replication in HBV-HDV coinfected dHepaRG cells. […] Cells and supernatants were harvested at day 13 for intracellular HBV and HDV RNA and secreted antigens quantification. Results are the mean+/−SD of two experiments performed with three biological replicates.
The inventors first evaluated the impact of FXRα agonists on HDV replication in in vitro coinfected dHepaRG cells. Cells were simultaneously infected with HBV and HDV. […] At day 13 post-infection, cells and supernatants were collected. The intracellular amounts of HDV and HBV RNAs were quantified as well as secreted HBe and HBs antigens.
HBV stocks (genotype D, Genbank ID U95551) were prepared using the HepAD38 cell line according to previously described protocols^7.
HBs and HBe antigens secreted in cells supernatant were quantified, after required dilutions, on Mini Vidas apparatus with Vidas HBs and Vidas HBE/HBET kits (bioMerieux, France) or Autobio kits (AutoBio, China) according to manufacturer's protocol.
Total RNA was prepared using NucleoSpin RNA Plus (Macherey-Nagel). After DNA digestion with TURBO DNase (Ambion), maximum 1000 ng RNA were reverse-transcribed using High-Capacity RNA-to-cDNA kit (Thermo Fisher Scientific). Quantitative PCR was carried out with primers HDV-F (5′-[…] -3′, SEQ ID NO: 1) and HDV-R (5′-[…] -3′, SEQ ID NO: 2) for quantification of total HDV RNA and HBV-F (5′-[…] -3′, SEQ ID NO: 3) and HBV-R (5′-[…] -3′, SEQ ID NO: 4) for quantification of pregenomic/precore HBV RNA. cDNA was analysed by quantitative PCR (qPCR) using QuantiFast SYBR® Green PCR kit (Qiagen) on LightCycler® 480 instrument (Roche) using a 45 PCR cycles. All assays were performed in triplicate. Relative quantification was determined by normalizing the expression of each gene to S9 housekeeping gene using primers S9-F (5′-[…] -3′, SEQ ID NO: 5) and S9-R (5′-[…] -3′, SEQ ID NO: 6).

[5] = test system: HDV; assay: HDV replication in HBV-infected dHepaRG super-infected with HDV (intracellular HDV RNA, RT-qPCR); format: cell-based, Hepatitis D virus; conditions: 7 days treatment, superinfected dHepaRG
[6] = test system: HDV; assay: HDV replication in HBV-infected PHH super-infected with HDV (intracellular HDV RNA, RT-qPCR); format: cell-based, Hepatitis D virus; conditions: 7 days treatment, superinfected PHH
[7] = test system: nascent HDV RNAs; assay: Run-On assay of nascent HDV RNAs in HBV/HDV co-infected dHepaRG; format: cell-based, Hepatitis D virus; conditions: 10 μM for 4 days, 2 h labelled uridin, coinfected dHepaRG
Procedure: FIG. 8. Decrease of the levels of nascent HDV RNAs in HBV/HDV co-infected dHepaRG treated with FXRα agonists. dHepaRG were co-infected with HBV (100 vge/cell) and with HDV (10 vge/cell). […] Cells were incubated with labelled uridin or not (mock-EU) for 2 h, washed and harvested. Total intracellular HDV RNAs as well as EU-labelled HDV RNAs (nascent intracellular HDV RNAs) were isolated and quantified by RT-qPCR analyses. As a control, cells were treated with actinomycin D (10 μg/mL, ActD) 20 min before incubation with labelled uridin in order to block transcription of nascent RNAs. Results are the mean+/−SD one experiment performed with three biological replicates.
Six days post-infection, cells were treated with 10 μM of GW4064 for 4 days before Run-On experiment.
HDV-infected HepaRG cells were incubated with labelled uridin or not (mock-EU) for 2 h, washed and harvested. Total intracellular HDV RNAs as well as EU-labelled HDV RNAs (nascent intracellular HDV RNAs) were isolated using the Click-iT™ Nascent RNA Capture Kit (Thermofisher Scientific) according to the manufacturer's instruction. As a control, cells were treated with 10 μg/mL of actinomycin D 20 min before incubation with labelled uridin in order to block transcription of nascent RNAs.

[8] = in vivo; cited from earlier work
[9] = test system: HDV particles; assay: Specific infectivity of secreted HDV particles on naïve Huh7.5-NTCP cells; conditions: 6 days post infection
Procedure: (A) Supernatants of infected dHepaRG cells were collected, concentrated by PEG precipitation and the levels of extracellular HDV RNAs were assessed by qRT-PCR analyses. (B-C) Naïve HuH7.5-^NTCP cells were infected with the different concentrated supernatants with (B) 500 vge/cell or (C) as indicated. Six days later, levels of intracellular HDV RNAs were assessed by RT-qPCR analyses. Results of RT-qPCR are the mean+/−SD of three independent experiments each performed with three biological replicates.
Finally, naïve Huh7.5-^NTCP cells were infected with the same concentrated supernatants but using two different HDV inoculum, 100 and 500 vge/cell, for each condition.
(§1) For analysis of HDV virion specific infectivity, supernatants from dHepaRG infected with both HBV and HDV were concentrated using 8% PEG 8000. HDV RNA was quantified by RT-qPCR in concentrates and Huh7.5^NTCP cells were infected using same viral genome equivalents (vge) of concentrated virus for each condition of treatment. Six days post infection, total cellular RNA was extracted and HDV RNA was quantified by RT-qPCR.

[10] = test system: HDV antigens (HDAg-L, HDAg-S); conditions: superinfected PHH, Western Blot densitometry normalized to B-tubulin
Procedure: PHH were infected with HBV at a MOI of 100 GE/cell and 4 days later with HDV at a MOI of 10 GE/cell. […] Cells and supernatants were harvested at day 14 post HBV infection for intracellular HDV RNA quantification and lysed for protein extraction and WB analyses. Graphs represent the densitometry analyses of the respective blots and results are presented as ratios of HDAgs normalized to the levels of B-tubulin.
(§2) Cells were harvested in RIPA lysis buffer (NaCl 150 mM, Tris HCl pH=8.0 50 mM, SDS 0.1%, NP40 1%, Na Deoxycholate 0.5%) containing protease inhibitors (Protein Cocktail Inhibitors from Sigma-Aldrich, NaF 10 mM, Na Orthovanadate 10 mM). Clarified lysates were subjected to 10% SDS-PAGE and Western Blot transfer onto PVDF or nitrocellulose membranes using the TransTurbo Blot apparatus according to the manufacturer (Biorad). Primary antibodies are the HDVAg antibody (kind gift of Dr Alain Kay) and the beta-tubulin antibody (Abcam). Secondary HRP antibodies were purchased from Sigma-Aldrich. HRP signal detection was determined electronically using Ozyme—Syngene PXi Image system and parameters set strictly below the saturation point.

[11] = test system: HDV antigens (HDAg-L, HDAg-S); conditions: superinfected dHepaRG, Western Blot densitometry normalized to B-tubulin
Procedure: Differentiated HepaRG cells were infected with HBV at a MOI of 100 GE/cell and 7 days later with HDV at a MOI of 10 GE/cell. […] Cells were harvested at day 17 post HBV infection and lysed for protein extraction and WB analyses. Graphs represent the densitometry analyses of the respective blots and results are presented as ratios of HDAgs normalized to the levels of B-tubulin.
as §2

[12] = test system: HDV; assay: Secretion of HDV RNA from HBV/HDV coinfected dHepaRG cells (RT-qPCR of concentrated supernatants); conditions: 10 μM for 10 days
Procedure: (A) Supernatants of infected dHepaRG cells were collected, concentrated by PEG precipitation and the levels of extracellular HDV RNAs were assessed by qRT-PCR analyses. […] Results of RT-qPCR are the mean+/−SD of three independent experiments each performed with three biological replicates.
as §1

Structure (SMILES): O=C(O)c1cc(F)c2nc(N3[C@@H]4CC[C@H]3C[C@@H](OCc3c(-c5ccccc5OC(F)(F)F)noc3C3CC3)C4)sc2c1 [tropifexor, 2-[(1R,3r,5S)-3-({5-cyclopropyl-3-[2-(trifluoromethoxy)phenyl]-1,2-oxazol-4-yl}methoxy)-8-azabicyclo[3.2.1]octan-8-yl]-4-fluoro-1,3-benzothiazole-6-carboxylic acid]
- decrease of total HDV RNA ([1]; 1 μM): around 60%
- amount of genomic HDV RNA ([2]; 1 μM): decreased

Structure (SMILES): CC(C)c1onc(-c2c(Cl)cccc2Cl)c1COc1ccc(/C=C/c2cccc(C(=O)O)c2)c(Cl)c1 [GW4064, 3-[2-[2-Chloro-4-[[3-(2,6-dichloro-phenyl)-5-(1-methylethyl)-4-isoxazolyl]methoxy]phenyl]ethenyl] benzoic acid]
- decrease of total intracellular HDV RNA [3]: 60%
- anti-HBV activity on amount of intracellular HBV RNAs [4]: verified
- anti-HBV activity on secreted HBe antigen [4]: verified
- anti-HBV activity on secreted HBs antigen [4]: verified
- decrease of total intracellular HDV RNA ([5]; 1 μM): very pronounced
- decrease of total intracellular HDV RNA ([5]; 10 μM): up to 60%
- decrease of total intracellular HDV RNA ([6]; 1 μM): very pronounced
- decrease of total intracellular HDV RNA ([6]; 10 μM): ≤ 45%
- decrease of total HDV RNA ([1]; 10 μM): around 60%
- synthesis of nascent HDV RNA [7]: able to inhibit
- bioavailability [8]: limited
- amount of genomic HDV RNA ([2]; 10 μM): decreased
- intracellular HDV RNA levels with inoculum 100 versus 500 vge/cell ([9]; Huh7.5-NTCP infected with supernatants of treated dHepaRG): no significant difference
- decrease of intracellular HDV RNA in cells infected with supernatants of treated dHepaRG ([9]; producer cells treated 10 μM, Huh7.5-NTCP infected with 500 vge/cell): more than 95%
- reduction of HDAg-L (large HDV antigen) amount [10]: 75%
- reduction of HDAg-S (small HDV antigen) amount [10]: 75%
- reduction of HDAg-L (large HDV antigen) amount [11]: 75%
- reduction of HDAg-S (small HDV antigen) amount [11]: 75%
- decrease of secreted HDV RNA [12]: 65%

Structure (SMILES): CC[C@H]1[C@@H](O)[C@@H]2[C@H](CC[C@]3(C)[C@@H]([C@H](C)CCC(=O)O)CC[C@@H]23)[C@@]2(C)CC[C@@H](O)C[C@@H]12 [6-ECDCA, 6-ethyl-cheno-deoxycholic acide]
- decrease of total HDV RNA ([1]; 10 μM): around 60%
- amount of genomic HDV RNA ([2]; 10 μM): decreased

Reference: US20230060715A1, “USE OF FXR AGONISTS FOR TREATING AN INFECTION BY HEPATITIS D VIRUS” (INSERM (INSTITUT NATIONAL DE LA SANTÉ ET DE LA RECHERCHE …, priority 2020, published 2023)
